Results as given in patent publication US20230093684A1, “STIMULI - OR BIO- RESPONSIVE COPOLYMERS, THE POLYMERSOMES COMPRISING THE SAME AND THEIR USE IN DRUG DELIVERY” (CENTRE NATIONAL DE LA RECHERCHE SCIENTIFIQUE, priority 2019, published 2023).

Assay: Glutathione (GSH)-triggered doxorubicin release followed by fluorescence
Type: physicochemical
Settings: Dox solution in brine 0.9% + GSH 10 mM
Protocol: Release of the encapsulated compound: The amount of released dye was followed at RT by fluorescence spectroscopy (Hitachi F7000 spectrometer). […] The λex excitation wavelength was set at 480 nm and the emission λem spectra were recorded from 490 to 720 nm. The instrument was used in scan mode, with excitation slit set to 5 nm and emission slit set to 5 nm.
The liberation of doxorubicin was followed by monitoring the fluorescence. Fluorescence spectra were collected by excitation at λex=470 nm wavelength and reading at λem=600 nm. In order to quantify the encapsulated drug, a method for the quantitative liberation was needed. Different methods, such as solvolysis, photolysis, addition of redox agents (sodium dithionite, mercaptoethanol, sodium thiosulfate, glutathione) were tested and are discussed as follows.
In parallel, Quino-Ps-DOX (50 μL) was treated with the […] glutathione (GSH) in its reduced form, 1 μL at c=10 mM in brine (0.9% (v/w). The concentration of the GSH was set to 10 mM in order to be compatible with the highest intracellular level (FIG. 5).
The amount of the liberated drug was quantified by fluorescence (λex=470 nm and λem=600 nm), by using a calibration curve (FIG. 6) ([…] (R^2=0.9911)). […]

## COc1cccc2c1C(=O)c1c(O)c3c(c(O)c1C2=O)C[C@@](O)(C(=O)CO)C[C@@H]3O[C@H]1C[C@H](N)[C@H](O)[C@H](C)O1 [doxorubicin]
  fluorescence intensity of free doxorubicin treated with GSH (stability control): no change in the fluorescence intensity
